Experimental data: patent EP0475531A1, “Benzoic acid phenylester compounds and elastase inhibiting compositions containing the same” (Asahi Kasei Kogyo Kabushiki Kaisha, priority 1990, dated 1992)
Read-outs that look alike come from different tables or passages of the source.

Biological target: T1, human leukocyte elastase (Homo sapiens, UniProt P08246)
T1 sequence (P08246 30-267): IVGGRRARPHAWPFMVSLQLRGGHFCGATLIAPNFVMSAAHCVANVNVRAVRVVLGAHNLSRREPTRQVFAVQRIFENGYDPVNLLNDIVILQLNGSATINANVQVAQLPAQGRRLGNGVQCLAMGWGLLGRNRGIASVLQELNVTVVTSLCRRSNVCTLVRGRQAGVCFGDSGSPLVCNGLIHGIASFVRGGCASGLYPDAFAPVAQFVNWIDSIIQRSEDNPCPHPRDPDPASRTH
Assay: in vitro human leukocyte elastase inhibiting activity (fluorogenic substrate, method of JP-A-2-101017 with slight modification)
Type: biochemical
Procedure: Thus, methoxysuccinyl-Ala-Ala-Pro-Val-7-amido-4-methylcoumarin was used as a substrate for human leukocyte elastase and the 50% inhibitory concentration (IC₅₀) was measured. The enzymatic reaction was carried out in 0.2 M Tris-hydrochloride buffer (containing 0.02 M CaCl₂ and 0.005% Triton X-100) at pH 7.2. Each mixture of test compound solution and the enzyme solution was incubated at 25°C for 20 minutes.

[1] = 50% inhibitory concentration, substrate methoxysuccinyl-Ala-Ala-Pro-Val-7-amido-4-methylcoumarin, 0.2 M Tris-hydrochloride buffer (0.02 M CaCl2, 0.005% Triton X-100), pH 7.2, compound and enzyme incubated at 25°C for 20 minutes, read-out: IC50

IC50 [1]	Compound	IC50
180 nM	CC(C)C(=O)Nc1ccc(C(=O)Oc2cccc(O)c2[N+](=O)[O-])cc1 [Compound 49, 5-hydroxy-6-nitrophenyl 4-(isobutanoylamino)benzoate]	–
140 nM	O=C(C=Cc1ccccc1)Nc1ccc(C(=O)Oc2cc(Cl)cc(Cl)c2)cc1 [Compound 21, 3,5-dichlorophenyl 4-(cinnamoylamino)benzoate]	–
1.9 nM	CCCC(=O)Nc1ccc(C(=O)Oc2cc(Cl)cc(Cl)c2)cc1 [Compound 3, 3,5-dichlorophenyl 4-(butanoylamino)benzoate]	–
21 nM	CCNC(=O)Nc1ccc(C(=O)Oc2cc(Cl)cc(Cl)c2)cc1 [Compound 27, 3,5-dichlorophenyl 4-(3-ethylureido)benzoate]	–
21 nM	CC(C)C(=O)Nc1ccc(C(=O)Oc2cccc(Br)c2)cc1 [Compound 72, 3-bromophenyl 4-(isobutanoylamino)benzoate]	–
2.6 nM	CC(C)C(=O)Nc1ccc(C(=O)Oc2cc(F)ccc2[N+](=O)[O-])cc1 [Compound 51, 3-fluoro-6-nitrophenyl 4-(isobutanoylamino)benzoate]	–
96 nM	CC(S)C(=O)Nc1ccc(C(=O)Oc2cc(Cl)cc(Cl)c2)cc1 (stereo not drawn) [Compound 39, 3,5-dichlorophenyl 4-(2-mercaptopropanoylamino)benzoate]	–
15 nM	Cc1ccc([N+](=O)[O-])c(OC(=O)c2ccc(NC(=O)C(C)C)cc2)c1 [Compound 52, 3-methyl-6-nitrophenyl 4-(isobutanoylamino)benzoate]	–
23 nM	CCCCC(=O)Nc1ccc(C(=O)Oc2cc(Cl)cc(Cl)c2)cc1 [Compound 4, 3,5-dichlorophenyl 4-(pentanoylamino)benzoate]	–
96 nM	CC(C)CC(=O)Nc1ccc(C(=O)Oc2cc(Cl)cc(Cl)c2)cc1 [Compound 19, 3,5-dichlorophenyl 4-(3-methylbutanoylamino)benzoate]	–
10 nM	O=C(Oc1cc(Cl)cc(Cl)c1)c1ccc(NC(=O)C2CCCCC2)cc1 [Compound 18, 3,5-dichlorophenyl 4-(cyclohexanecarbonylamino)benzoate]	–
25 nM	CC(C)C(=O)Nc1ccc(C(=O)Oc2c(F)cccc2F)cc1 [Compound 69, 2,6-difluorophenyl 4-(isobutanoylamino)benzoate]	–
47 nM	CNC(=O)Nc1ccc(C(=O)Oc2cc(Cl)cc(Cl)c2)cc1 [Compound 26, 3,5-dichlorophenyl 4-(3-methylureido)benzoate]	–
13 nM	CC(C)NC(=O)Nc1ccc(C(=O)Oc2cc(Cl)cc(Cl)c2)cc1 [Compound 31, 3,5-dichlorophenyl 4-(3-isopropylureido)benzoate]	–
24 nM	CC(C)C(=O)Nc1ccc(C(=O)Oc2cc(Cl)cc(OS(=O)(=O)c3ccccc3)c2)cc1 [Compound 85, 3-benzenesulfonyloxy-5-chlorophenyl 4-(isobutanoylamino)benzoate]	–
2.5 nM	CCC(=O)Oc1cc(Cl)cc(OC(=O)c2ccc(NC(=O)C(C)C)cc2)c1 [Compound 75, 3-chloro-5-propanoyloxyphenyl 4-(isobutanoylamino)benzoate]	–
38 nM	O=C(Nc1ccc(C(=O)Oc2cc(Cl)cc(Cl)c2)cc1)OCCO [Compound 35, 3,5-dichlorophenyl 4-(2-hydroxyethoxycarbonylamino)benzoate]	–
3.4 nM	CC(C)(C(=O)O)C(=O)Nc1ccc(C(=O)Oc2cc(Cl)cc(Cl)c2)cc1 [Compound 40, 3,5-dichlorophenyl 4-(2,2-dimethylmalonylamino)benzoate]	–
4.5 nM	CC(C)C(=O)Nc1ccc(C(=O)Oc2cc(Cl)cc(Cl)c2Cl)cc1 [Compound 65, 2,3,5-trichlorophenyl 4-(isobutanoylamino)benzoate]	–
7.7 nM	O=C(Oc1cc(Cl)cc(Cl)c1)c1ccc(NC(=O)C2CC2)cc1 [Compound 15, 3,5-dichlorophenyl 4-(cyclopropanecarbonylamino)benzoate]	–
220 nM	CC(C)C(=O)Nc1ccc(C(=O)Oc2cc(C(F)(F)F)cc(C(F)(F)F)c2)cc1 [Compound 64]	–
2.7 nM	CC(C)(C)C(=O)Nc1ccc(C(=O)Oc2cc(F)ccc2[N+](=O)[O-])cc1 [Compound 59, 3-fluoro-6-nitrophenyl 4-(pivaloylamino)benzoate]	–
4.2 nM	CC(C)(C)C(=O)Nc1ccc(C(=O)Oc2cc(C=O)ccc2[N+](=O)[O-])cc1 [Compound 60, 3-formyl-6-nitrophenyl 4-(pivaloylamino)benzoate]	–
110 nM	CCCCCCCC(=O)Nc1ccc(C(=O)Oc2cc(Cl)cc(Cl)c2)cc1 [Compound 6, 3,5-dichlorophenyl 4-(octanoylamino)benzoate]	–

Further lines, the compound ahead of its results:

Compound	IC50 [1]	IC50
CCC(=O)Nc1ccc(C(=O)Oc2cc(Cl)cc(Cl)c2)cc1 [Compound 2, 3,5-dichlorophenyl 4-(propanoylamino)benzoate]	7 nM	–
CS(=O)(=O)Nc1ccc(C(=O)Oc2cc(Cl)cc(Cl)c2)cc1 [Compound 24, 3,5-dichlorophenyl 4-(methanesulfonylamino)benzoate]	98 nM	–
CC(=O)Oc1cc(C#N)cc(OC(=O)c2ccc(NC(=O)C(C)C)cc2)c1 [Compound 93, 3-cyano-5-acetoxyphenyl 4-(isobutanoylamino)benzoate]	36 nM	–
CC(C)C(=O)Nc1ccc(C(=O)Oc2cc(Cl)cc(OC(=O)C(C)C)c2)cc1 [Compound 76, 3-chloro-5-isobutanoyloxyphenyl 4-(isobutanoylamino)benzoate]	1.9 nM	–
CC(C)C(=O)Nc1ccc(C(=O)Oc2cccc(F)c2)cc1 [Compound 71, 3-fluorophenyl 4-(isobutanoylamino)benzoate]	310 nM	–
CC=CC(=O)Nc1ccc(C(=O)Oc2cc(Cl)cc(Cl)c2)cc1 [Compound 13, 3,5-dichlorophenyl 4-(2-butenoylamino)benzoate]	9 nM	–
CC(C)C(=O)Nc1ccc(C(=O)Oc2c(Cl)cccc2Cl)cc1 [Compound 66, 2,6-dichlorophenyl 4-(isobutanoylamino)benzoate]	94 nM	–
CN(C)C(=O)Nc1ccc(C(=O)Oc2cc(Cl)cc(Cl)c2)cc1 [Compound 32, 3,5-dichlorophenyl 4-(3,3-dimethylureido)benzoate]	5.9 nM	–
CC(=O)OC(=O)Nc1ccc(C(=O)Oc2cc(Cl)cc(Cl)c2)cc1 [Compound 36, 3,5-dichlorophenyl 4-(acetoxycarbonylamino)benzoate]	31 nM	–
O=C(O)CCCC(=O)Nc1ccc(C(=O)Oc2cc(Cl)cc(Cl)c2)cc1 [Compound 43, 3,5-dichlorophenyl 4-(glutarylamino)benzoate]	7.6 nM	–
CC(C)C(=O)Nc1ccc(C(=O)Oc2cc(Cl)cc(OCc3ccccc3)c2)cc1 [Compound 88, 3-benzyloxy-5-chlorophenyl 4-(isobutanoylamino)benzoate]	48 nM	–
CC(C)C(=O)Nc1ccc(C(=O)Oc2cccc(F)c2F)cc1 [Compound 67, 2,3-difluorophenyl 4-(isobutanoylamino)benzoate]	88 nM	–
CN(C)C(=O)Oc1cc(Cl)cc(OC(=O)c2ccc(NC(=O)C(C)(C)C)cc2)c1 [Compound 58, 3-chloro-5-(dimethylaminocarbonyloxy)phenyl 4-(pivaloylamino)benzoate]	–	3.5 nM
CC(C)C(=O)Nc1ccc(C(=O)Oc2cc(C(=O)O)ccc2[N+](=O)[O-])cc1 [Compound 54, 3-hydroxycarbonyl-6-nitrophenyl 4-(isobutanoylamino)benzoate]	2.1 nM	–
CC(C(=O)Nc1ccc(C(=O)Oc2cc(Cl)cc(Cl)c2)cc1)c1ccccc1 (stereo not drawn) [Compound 20, 3,5-dichlorophenyl 4-(2-methyl-2-phenylacetylamino)benzoate]	12 nM	–
CC(C)C(=O)Nc1ccc(C(=O)Oc2cc(Cl)cc(Cl)c2)cc1 [Compound 7, 3,5-dichlorophenyl 4-(isobutanoylamino)benzoate]	4.1 nM	–
CSC(C)C(=O)Nc1ccc(C(=O)Oc2cc(Cl)cc(Cl)c2)cc1 (stereo not drawn) [Compound 38, 3,5-dichlorophenyl 4-(2-methylthiopropanoylamino)benzoate]	18 nM	–
CCCCCC(=O)Nc1ccc(C(=O)Oc2cc(Cl)cc(Cl)c2)cc1 [Compound 5, 3,5-dichlorophenyl 4-(hexanoylamino)benzoate]	37 nM	–
CC(C)C(=O)Nc1ccc(C(=O)Oc2cc(Cl)cc(OC(=O)N(C)C)c2)cc1 [Compound 81, 3-chloro-5-(dimethylaminocarbonyloxy)phenyl 4-(isobutanoylamino)benzoate]	–	6.5 nM
CCCCCNC(=O)Nc1ccc(C(=O)Oc2cc(Cl)cc(Cl)c2)cc1 [Compound 30, 3,5-dichlorophenyl 4-(3-pentylureido)benzoate]	190 nM	–
CC(C)C(=O)Nc1ccc(C(=O)Oc2cc([N+](=O)[O-])ccc2[N+](=O)[O-])cc1 [Compound 50, 2,5-dinitrophenyl 4-(isobutanoylamino)benzoate]	–	4.7 nM
CC(C)C(=O)Nc1ccc(C(=O)Oc2cccc(OC(F)(F)F)c2)cc1 [Compound 89, 3-trifluoromethoxyphenyl 4-(isobutanoylamino)benzoate]	400 nM	–
CC(C)C(=O)Nc1ccc(C(=O)Oc2cc(Cl)cc(OC(=O)C3(C)CC3)c2)cc1 [Compound 78, 3-chloro-5-(1-methylcyclopropanecarbonyloxy)phenyl 4-(isobutanoylamino)benzoate]	9.6 nM	–
COC(=O)Nc1ccc(C(=O)Oc2cc(Cl)cc(Cl)c2)cc1 [Compound 33, 3,5-dichlorophenyl 4-(methoxycarbonylamino)benzoate]	26 nM	–
